These results are taken from US9216181B2 (Southwest Research Institute, priority 2011, dated 2015).

Values joined by “and” are separate entries in the source; they are usually repeats but may differ in a detail not shown here. Identical values can stand only once. Counter-ions that a name gives are not always drawn.

This experiment relates to BMP-2. Briefly: BMP-2 fold change of JHU library compounds, confirmed by qPCR. The settings on record: JHU library compounds; non-treated = 1.00. It is filed as cell-based, human. The text has this:
To further verify the technique, a 2T3 mouse pre-osteoblast cell line derived from calvaria courtesy of Dr. Steve Harris, UTHSCSA, was utilized to visually screen the compounds of the BIOMOL library and JHU libraries, purchased from John Hopkins University including 2387 compounds (solution in wells). Specifically, Murine 2T3 were thawed from one frozen cryovial and re-seeded into two T-75 tissue culture flasks grown in Alpha MEM with 10% FBS, Glutamine, and Pen/Strip antibiotics. Cells were incubated in a humidified 37° C. under 5% CO2 for 48 hours or when cells reached 80% confluence. After reaching confluency, the 2T3 were trypsinized and resuspended in pre-warm growth media to a cell density of 5×10^4 cells/mL. Approximately 100 uL of cell suspension was seeded to a 96 well plate to give a final 5,000 cells per well. Plate was incubated overnight at 37° C. and spent media was aspirated and replace with 100 uL of growth media with 5-10 uM of presumptive drug compounds. A set of controls were untreated and treated with 10 uM of Lovastatin to be used as a visual reference morphological screening.
Human mesenchymal stem cells (LONZA, Catalog PT2501) were maintained in Mesenchymal stem cells basal media (MSCBM CAT#PT-3238). Early passage cells were plated in triplicate at 2×10^4 cells/cm^2 using six well tissue culture plates and grown in humidified 5% CO2 at 37° C. for 24 hours. Spent media was replaced by assay media of drugs to be tested in same media as above at 10 μM final concentration. Untreated cells were used as the control group. […] RNA concentration and integrity was assessed by absorbance 260/280 and electrophoresis in 1% Agarose with formaldehyde loading dye. For TaqMan gene expression, cDNA was synthesized from 2 μg of total RNA using the High Capacity cDNA Reverse Transcription Kit (Applied Biosystems, Cat. 4368814). The resulting cDNA were diluted 1:100 for TaqMan and amplified by real-time quantitative PCR. […] A cocktail of universal master mix (Applied Biosystems, 4369016) were prepared individually for both set of primers which contained Taq Polymerase, dNTPs, and buffer. Template cDNA's were added separately to respective individual wells in triplicate samples. The PCR were performed on StepOne Plus Real Time System instrument (Applied Biosystems). The amplification program consisted of 1 cycle of 95° C. with 10 minute hold (hot start) followed by 50 cycles of 95° C. with 15 second annealing hold and 1 minute 60° C. specified acquisition hold. […] Change in gene expression was determined by the expression ΔΔCt relative method.
Included in the tables is the target or common medical use for each compounds.
With `CC(=O)OCC(=O)[C@@]1(O)CC[C@H]2[C@@H]3C[C@H](C)C4=CC(=O)C=C[C@]4(C)[C@H]3[C@@H](O)C[C@@]21C` [6alpha-METHYLPREDNISOLONE ACETATE], the “Fold change (BMP-2)” value amounted to 35.00 fold.

As for `Nc1c2ccccc2nc2ccccc12` [Aminacrine (9-Aminoacridine)], the “Fold change (BMP-2)” value is on record as 5762.00 fold.

In the case of `COc1cc(NS(C)(=O)=O)ccc1Nc1c2ccccc2nc2ccccc12` [Amsacrine], the “Fold change (BMP-2)” value came out at 85.00 fold.

In the case of `COc1ccc(C[C@H]2NC[C@H](O)[C@H]2OC(C)=O)cc1` [Anisomycin], the “Fold change (BMP-2)” value was 670.00 fold and 387.00 fold.

With `CC(=O)[O-].CC(=O)[O-].[Cd+2]` [Cadmium Acetate], the “Fold change (BMP-2)” value worked out at 8.00 fold.

For `CC(C)(C)CC(C)(C)c1ccc(O)c(Cc2ccc(Cl)cc2Cl)c1` [Clofoctol], the “Fold change (BMP-2)” value turned out to be 11.00 fold.

`C[C@@H]1C[C@@H]([C@H](O)CC2CC(=O)NC(=O)C2)C(=O)[C@@H](C)C1` [Cycloheximide]: the “Fold change (BMP-2)” value worked out at 34.00 fold.

On to `Oc1ccc(CCN2CCC(Nc3nc4ccccc4n3Cc3ccc(F)cc3)CC2)cc1` [Desmethyl astemizole], for which the “Fold change (BMP-2)” value was found to be 75.00 fold.

As to `COc1ccc(-c2cc(=O)c3c(O)cc(O[C@@H]4O[C@H](CO[C@@H]5O[C@@H](C)[C@H](O)[C@@H](O)[C@H]5O)[C@@H](O)[C@H](O)[C@H]4O)cc3o2)cc1O` [Diosmin], the “Fold change (BMP-2)” value is 9.00 fold.

Regarding `CC[C@H]1CN2CCc3cc(OC)c(OC)cc3[C@@H]2C[C@@H]1C[C@H]1NCCc2cc(OC)c(OC)cc21` [Emetine], the “Fold change (BMP-2)” value came to 220.00 fold.

Turning to `CC[C@@H](C(=O)[C@@H](C)[C@@H](O)[C@H](C)CCc1ccc(C)c(O)c1C(=O)[O-])[C@H]1O[C@](CC)([C@H]2CC[C@](O)(CC)[C@H](C)O2)C[C@@H]1C.[Na+]` [Laslocid Sodium], the “Fold change (BMP-2)” value is 4.00 fold.

Consider `O=[N+]([O-])c1ccc(O)c2ncccc12` [Nitroxoline (8-hydroxy 5-nitroquinoline)], for which the “Fold change (BMP-2)” value came out at 18.00 fold.

For the molecule `O=P([O-])([O-])OC1C(OP(=O)([O-])[O-])C(OP(=O)([O-])[O-])C(OP(=O)([O-])[O-])C(OP(=O)([O-])[O-])C1OP(=O)([O-])[O-].[Na+].[Na+].[Na+].[Na+].[Na+].[Na+].[Na+].[Na+].[Na+].[Na+].[Na+].[Na+]` (stereo not drawn) [Phytic acid, dodecasodium salt hydrate], the “Fold change (BMP-2)” value was 15.00 fold.

Consider `Cc1cc(/C=C/c2ccc3cc(N(C)C)ccc3[n+]2C)c(C)n1-c1ccccc1` [Pyrvinium pamoate], for which the “Fold change (BMP-2)” value is recorded as 398.00 fold.

Turning to `C=C(C)[C@H]1Cc2c(ccc3c2O[C@@H]2COc4cc(OC)c(OC)cc4[C@@H]2C3=O)O1` [ROTENONE], the “Fold change (BMP-2)” value was 61.00 fold.

With `C[CH2][Hg][S]c1ccccc1C(=O)[O-].[Na+]` [THIMEROSAL], the “Fold change (BMP-2)” value is 23.00 fold.

As to `CN(C)C(=S)SSC(=S)N(C)C` [THIRAM], the “Fold change (BMP-2)” value was 36.00 fold.

As for `C=C(NC(=O)C(=C)NC(=O)c1csc(C2=N[C@@H]3c4csc(n4)[C@H]4NC(=O)c5csc(n5)[C@H]([C@](C)(O)[C@@H](C)O)NC(=O)[C@H]5CSC(=N5)/C(=C/C)NC(=O)[C@H]([C@@H](C)O)NC(=O)c5csc(n5)[C@]3(CC2)NC(=O)[C@H](C)NC(=O)C(=C)NC(=O)[C@H](C)NC(=O)[C@H]([C@@H](C)CC)N[C@@H]2C=Cc3c([C@H](C)O)cc(nc3[C@H]2O)C(=O)O[C@@H]4C)n1)C(N)=O` [Thiostrepton], the “Fold change (BMP-2)” value was found to be 5.00 fold.

As to `CC[C@@]1(O)C(=O)OCc2c1cc1n(c2=O)Cc2cc3c(CN(C)C)c(O)ccc3nc2-1` [Topotecan], the “Fold change (BMP-2)” value stood at 365.00 fold.

Regarding `CCC1=C[C@@H]2CN(C1)Cc1c([nH]c3ccccc13)[C@@](C(=O)OC)(c1cc3c(cc1OC)N(C)[C@H]1[C@@](O)(C(=O)OC)[C@H](OC(C)=O)[C@]4(CC)C=CCN5CC[C@]31[C@@H]54)C2` [Vinorelbine tartrate], the “Fold change (BMP-2)” value is 803.00 fold.

For Acriflavine hydrochloride, the “Fold change (BMP-2)” value turned out to be 1491.00 fold.

On to Brilliant Blue, for which the “Fold change (BMP-2)” value came to 111.00 fold.

Proflavine hemisulfate salt hydrate: the “Fold change (BMP-2)” value worked out at 177.00 fold.

With Verteporfin, the “Fold change (BMP-2)” value is 6.00 fold.
